Test results from patent publication US7303895B1 (priority 1999, dated 2007).

Experiments:
Format in all cases: cell-based
[1] = target: T1, mutant yeast transformed by 4.17 (truncated tCTL1) (Torpedo marmorata, UniProt Q9I9B9, G501V); assay: saturable [3H]choline absorption by mutant yeast transformed with clone 4.17; settings: 1 μM HC-3, 30° C., 30 minutes
T1 construct: the suppressor, 4.17, whose first ATG corresponds to M471 of tCTLI; expressed in transfected cells; host or cells: Saccharomyces cerevisiae ctr ise URA3 mutant strain, plasmid pFL61
T1 sequence (Q9I9B9 471-646 G501V): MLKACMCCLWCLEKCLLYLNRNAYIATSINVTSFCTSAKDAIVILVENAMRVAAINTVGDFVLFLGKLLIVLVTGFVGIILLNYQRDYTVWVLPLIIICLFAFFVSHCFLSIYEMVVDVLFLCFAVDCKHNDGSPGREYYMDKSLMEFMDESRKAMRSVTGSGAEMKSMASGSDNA
Experimental: The transformed yeast was incubated at 30° C. for 30 minutes with 25 nM [3H]-choline.
The plasmids were isolated from colonies having a strong choline-dependent growth phenotype, and they were used to transform aliquot fractions of mutant yeast in order to eliminate the ctr reverse mutants and the yeast suppressor mutations.
The culture density was normalized by measuring the OD600.

CTL1 in glioma cell C6 = target: T2, CTL1 in glioma cell C6 (Rattus norvegicus, UniProt Q8VII6, K645E/R267S); assay: total absorption of choline by glioma C6 cells transiently transfected with CTL1pcDNA3; settings: hemicholinium-3; 48 hours after transfection; only C6-CTL1pcDNA3 cells, not empty-plasmid cells
T2 construct: expressed in transfected cells; host or cells: glioma C6 cells, transient transfection, vector pcDNA3
T2 sequence (Q8VII6 1-653 isoform Q8VII6-2 R267S/K645E): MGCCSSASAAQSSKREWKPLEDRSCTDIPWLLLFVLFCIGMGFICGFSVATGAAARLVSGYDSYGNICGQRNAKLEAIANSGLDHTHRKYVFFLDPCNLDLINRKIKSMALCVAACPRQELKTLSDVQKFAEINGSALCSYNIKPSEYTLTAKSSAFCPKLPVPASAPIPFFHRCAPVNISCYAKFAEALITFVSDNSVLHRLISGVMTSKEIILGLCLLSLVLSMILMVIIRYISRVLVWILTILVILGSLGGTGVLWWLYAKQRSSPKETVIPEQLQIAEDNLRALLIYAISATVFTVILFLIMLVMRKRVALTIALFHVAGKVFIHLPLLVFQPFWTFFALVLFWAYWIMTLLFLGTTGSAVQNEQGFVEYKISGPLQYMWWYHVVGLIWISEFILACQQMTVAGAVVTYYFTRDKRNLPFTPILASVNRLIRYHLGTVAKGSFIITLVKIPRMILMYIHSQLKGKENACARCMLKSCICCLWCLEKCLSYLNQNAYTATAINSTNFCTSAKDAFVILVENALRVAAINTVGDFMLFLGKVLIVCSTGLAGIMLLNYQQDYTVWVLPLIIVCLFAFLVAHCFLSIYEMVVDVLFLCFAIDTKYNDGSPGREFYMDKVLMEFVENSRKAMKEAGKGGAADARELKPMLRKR
Excerpt: FIGS. 8A-8C: Transient transfection of glioma cell C6 with the vector CTL1pcDNA3 described in FIG. 6.

N18 cells = assay: capture of tritiated choline by N18 cells transiently transfected with rCTL1a/pcDNA3, rCTL1b/pcDNA3 or pcDNA3; settings: 10 μM of the substance; 24 hours after transfection; same in all three transfections (rCTL1a, rCTL1b, empty pcDNA3); result not shown

SMILES: C[N+]1(C)CCOC(O)(c2ccc(-c3ccc(C4(O)C[N+](C)(C)CCO4)cc3)cc2)C1.[Br-].[Br-] (stereo not drawn) [HC-3, hemicholinium-3]
- saturable [3H]choline absorption by the yeast transformed in 4.17 [1]: inhibited
- inhibition of total absorption of choline (CTL1 in glioma cell C6): inhibition
- inhibition of capture of tritiated choline (N18 cells): about 50%
